Among the data in ChEMBL document CHEMBL1137053, “QSAR modeling of the MAO inhibitory activity of xanthones derivatives” (Bioorg Med Chem Lett, 2004) are IC50 values, retold here.

SMILES strings stand for the structures. pIC50: −log10 of the molar value.

For this test, the target named is T1, Amine oxidase [flavin-containing] A (Homo sapiens, UniProt P21397).
T1 sequence (P21397 whole entry): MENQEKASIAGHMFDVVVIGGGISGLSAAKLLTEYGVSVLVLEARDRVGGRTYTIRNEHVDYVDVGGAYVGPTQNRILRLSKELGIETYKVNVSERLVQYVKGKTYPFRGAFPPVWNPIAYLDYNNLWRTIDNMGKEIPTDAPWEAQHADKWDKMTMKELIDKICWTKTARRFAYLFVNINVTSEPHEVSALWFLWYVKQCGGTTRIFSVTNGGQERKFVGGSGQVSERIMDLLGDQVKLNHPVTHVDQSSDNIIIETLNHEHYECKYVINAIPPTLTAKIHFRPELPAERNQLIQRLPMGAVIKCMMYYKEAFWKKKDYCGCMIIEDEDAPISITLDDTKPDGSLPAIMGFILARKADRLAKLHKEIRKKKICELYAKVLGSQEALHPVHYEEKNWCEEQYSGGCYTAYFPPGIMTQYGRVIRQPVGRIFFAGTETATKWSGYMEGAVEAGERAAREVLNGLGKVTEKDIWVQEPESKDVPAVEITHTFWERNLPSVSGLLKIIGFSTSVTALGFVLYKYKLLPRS
The test is described as follows: Concentration required to inhibit monoamine oxidase activity by 50%.
Take `CC(C)=CCc1cc(O)c2oc3c(O)cccc3c(=O)c2c1O`: the negative-log IC50 (pIC50) is 5.48.
For `COc1cc(O)c2c(=O)c3cccc(OC)c3oc2c1`, the pIC50 was 4.54. Against the preceding compound, the pIC50 is 0.94 log units lower.
Turning to `COc1cccc2c(=O)c3ccc(O)cc3oc12`, the negative-log IC50 (pIC50) is 4.64. This pIC50 and that of the compound before are within 0.2 log units of each other.
Compound `O=c1c2cccc(O)c2oc2cccc(O)c12` showed a pIC50 of 6.14. This pIC50 lies 1.50 log units higher than the previous one.
With `O=c1c2ccc(O)cc2oc2c(O)cccc12` the figure was 5.35; with `COc1c(O)ccc2c(=O)c3ccccc3oc12`, 4.19; with `O=c1c2ccccc2oc2ccc(O)cc12`, 5.42.
`COc1ccc2c(=O)c3ccccc3oc2c1OC` had a pIC50 of 4.51.
With `COc1ccc2c(=O)c3cccc(OC)c3oc2c1` the figure was 4.44; with `COc1ccc2c(=O)c3ccccc3oc2c1`, 6.74; with `COc1cc(OC)c2c(=O)c3cccc(OC)c3oc2c1`, 4.24.
In turn, `COc1c(O)cc2oc3c(O)cccc3c(=O)c2c1O` showed a pIC50 of 5.57.
With `COc1c(O)cc2oc3c(OC)cccc3c(=O)c2c1O` the figure was 4.29.
With `COc1ccc2oc3ccccc3c(=O)c2c1` the figure was 5.28; with `COc1ccc2c(=O)c3ccccc3oc2c1O`, 4.74; with `COc1cc2oc3c(OC)cccc3c(=O)c2c(OC)c1OC`, 4.43.
`Cc1c(O)c(Br)c2oc3ccccc3c(=O)c2c1O`: the pIC50 is 4.83.
To `O=c1c2c(O)cc(O)cc2oc2ccc(O)c(O)c12` belongs 4.62; to `COc1cccc2oc3c(O)cccc3c(=O)c12`, 4.29; to `COc1cc(OC)c2c(=O)c3ccccc3oc2c1`, 4.69.
Turning to `CC(C)=CCC/C(C)=C\Cc1c(O)cc(O)c2c(=O)c3cccc(O)c3oc12`, the pIC50 is 4.43.
To `O=c1c2cc(O)c(O)cc2oc2cc(O)cc(O)c12` belongs 4.60; to `O=c1c2ccccc2oc2cccc(O)c12`, 6.51.
To `COc1c(O)cc2oc3c(OC)c(O)ccc3c(=O)c2c1O` belongs 4.49; to `COc1cccc2c(=O)c3ccccc3oc12`, 4.52; to `COc1cc(O)c2c(=O)c3ccccc3oc2c1`, 6.96.
`CC(C)=CCc1cc(O)c2c(=O)c3cccc(O)c3oc2c1O` had a negative logarithm of the IC50 (pIC50) of 4.40. This pIC50 lies 2.56 log units lower than the previous one.
To `O=c1c2ccccc2oc2c(O)cccc12` belongs 5.89.
To `O=c1c2cc(O)ccc2oc2cc(O)cc(O)c12` belongs 5.10; to `Cc1c(O)cc(O)c2c(=O)c3ccccc3oc12`, 5.37; to `COc1cc(O)c2c(=O)c3cccc(O)c3oc2c1`, 7.40.
With `Cc1c(O)c(Cl)c2oc3ccccc3c(=O)c2c1O` the figure was 4.57.
Consider `COc1cccc2oc3ccccc3c(=O)c12`, for which the negative-log IC50 (pIC50) was 6.05. Compared with the last compound, the pIC50 is 1.48 log units higher.
With `O=c1c2cccc(O)c2oc2cc(O)cc(O)c12` the figure was 5.42; with `O=c1c2ccccc2oc2cc(O)ccc12`, 5.96; with `COc1cc(O)c2oc3c(C)ccc(OC)c3c(=O)c2c1`, 4.62.
To `Cc1c(O)cc2oc3ccccc3c(=O)c2c1O` belongs 5.43; to `COc1cc(O)c2c(=O)c3c(O)ccc(O)c3oc2c1` [BELLIDIFOLIN], 6.18; to `COc1cc(O)c2c(=O)c3c(OC)c(OC)ccc3oc2c1` [DECUSSATIN], 4.72.
The compound `O=c1c2c(O)cc(O)cc2oc2c(O)ccc(O)c12` [DEMETHYLBELLIDIFOLIN] showed a negative-log IC50 (pIC50) of 4.89.
As to `COc1cc(O)c2c(=O)c3c(O)c(O)ccc3oc2c1` [GENTIAKOCHIANIN], the pIC50 is 5.07.
With `O=c1c2ccccc2oc2ccccc12` [XANTHONE] the figure was 6.08.

One may read the pIC50 as the IC50 on a negative log10 scale, so that one unit is a factor of ten.
